Test results reported in US20260034227A1, “AZLACTONE-BASED POLYMERS AS A SCAFFOLD FOR DIVERSE APPLICATIONS IN DRUG AND GENE DELIVERY” (University of Mississippi, priority 2022, published 2026).

Test: Pharmacokinetics of DBAC generated from polymer-drug conjugate (UPLC-MS/MS)
Format: in vivo, CD-1 mice
Settings: CD1 mice; for F: oral relative to intravenous, 10 mg/kg
Protocol: UPLC-MS/MS. Chromatography was performed on an AcquityTM UPLC system (Waters Corp, Milford, MA) with an autosampler temperature at 10° C. Waters Acquity UPLC® BEH Phenyl column (3.0×50 mm, 1.7 μm particle size) was used for chromatographic separation with linear gradient elution consisting of (A) 90% acetonitrile and (B) 10% of 0.2% formic acid in Milli-Q water as mobile phases. The flow rate was set at 0.30 mL/min, and the injection volume was 2 μL. An Acquity Tandem Quadrupole Mass Detector (Xevo TQ-S; Waters Corp, Milford, MA) in positive electrospray ionization mode was used for mass spectrometric detection. For collision-induced dissociation, argon was used as collision gas. The cone voltage and collision energy were set at 40 V and 24 V for DBAC and 40 V and 26 V for the tolbutamide (IS), respectively. Quantification was performed using the monitoring of multiple reaction monitoring (MRM) of following transitions: m/z 276/186 for DBAC and m/z 271/90.9 for IS. […] Pharmacokinetics of […]. All procedures were performed in compliance with the University of Mississippi Animal Care and Use Committee and following the National Institutes of Health (NIH) guidelines. […] Either DBAC or […] were administered at 10 mg/kg through oral gavage or retro-orbital IV injection at a volume of 0.1 mL. The vehicle for DBAC was 10% absolute alcohol, 10% cremophor and 80% Milli-Q water, whereas the […] polymer was administered in 100% PBS. […] Blood was collected by cardiac puncture and stored in K2 EDTA tubes (SAI Infusion Technologies, #MVCB-E-300). Mice were then perfused through heart with PBS (Life Technologies, #10-010-072). Plasma was harvested by centrifuging the blood using Eppendorf […] Centrifuge (Germany) at 5,000 rpm for 5 min and stored frozen at -80±10° C. until analysis. […] Sample preparation for DBAC detection. A simple protein precipitation method was followed for extraction of DBAC from mice plasma. To an aliquot of 50 μL of plasma or tissue (GI tract, heart, lung, spleen, liver or kidney) samples, tolbutamide (internal standard, IS) solution (5 μL of 20 ng/ml) was added and mixed for 15 s on a cyclomixer (Thermo Scientific, IN, USA). After precipitation with 500 μL of acetonitrile, the mixture was vortexed for 2 min, followed by centrifugation for 10 min at 14,000 rpm on an accuSpin Micro 17R (Fisher Scientific, USA) at 5° C. An aliquot of 150 μL of clear supernatant was transferred into vials and 2 μL was injected into the UPLC-MS/MS system for analysis. The primary stock solutions of DBAC and tolbutamide (IS) were prepared in methanol at 1.0 mg/mL concentration. Working solutions of calibration standards and quality control (QC) samples were prepared by dilution with methanol and stored at -20° C. A working stock of the IS solution (20 ng/ml) was prepared in methanol and stored at -20° C.

[1] = GI tract, intravenous 10 mg/kg conjugate
[2] = GI tract, oral 10 mg/kg conjugate
[3] = Heart, intravenous 10 mg/kg conjugate
[4] = Kidney, intravenous 10 mg/kg conjugate
[5] = Kidney, oral 10 mg/kg conjugate
[6] = Liver, intravenous 10 mg/kg conjugate
[7] = Lung, intravenous 10 mg/kg conjugate
[8] = Plasma, intravenous 10 mg/kg conjugate
[9] = Plasma, oral 10 mg/kg conjugate
[10] = Spleen, intravenous 10 mg/kg conjugate

**Q.** With “N-(2-hydroxyethyl)-N,N-dimethyl-2-oxo-2-(2-oxo-2H-chromen-3-yl)ethanaminium [DBAC]” as the substance, how does the AUC0-α [1] read?
**A.** 18544 ± 156 ng·h/g

**Q.** And the CO [1]?
**A.** 4899 ± 1104 ng/g

**Q.** What about the t1/2 [1] of the same substance?
**A.** 6.97 ± 1.03 h

**Q.** What about the AUC0-α [2] of the same substance?
**A.** 95643 ± 1023 ng·h/g

**Q.** What about the Tmax [2] of the same substance?
**A.** 1.25 ± 0.53 h

**Q.** And the F (GI tract)?
**A.** >100 ± 47.5%

**Q.** And the AUC0-α [3]?
**A.** 8914 ± 512 ng·h/g

**Q.** And the CO [3]?
**A.** 4961 ± 715 ng/g

**Q.** What about the t1/2 [3] of the same substance?
**A.** 2.20 ± 0.78 h

**Q.** And the AUC0-α (Heart, oral 10 mg/kg conjugate)?
**A.** 1008 ± 95.6 ng·h/g

**Q.** What about the Tmax (Heart, oral 10 mg/kg conjugate) of the same substance?
**A.** 4.38 ± 0.53 h

**Q.** And the F (Heart)?
**A.** 11.3 ± 2.57%

**Q.** What about the AUC0-α [4] of the same substance?
**A.** 10575 ± 1910 ng·h/g

**Q.** What about the CO [4] of the same substance?
**A.** 41296 ± 2103 ng/g

**Q.** And the t1/2 [4]?
**A.** 3.49 ± 0.59 h

**Q.** And the AUC0-α [5]?
**A.** 490 ± 101 ng·h/g

**Q.** What about the Tmax [5] of the same substance?
**A.** 0.50 ± 0.00 h

**Q.** What about the F (Kidney) of the same substance?
**A.** 4.64 ± 2.59%

**Q.** What about the AUC0-α [6] of the same substance?
**A.** 17457 ± 3832 ng·h/g

**Q.** What about the CO [6] of the same substance?
**A.** 36898 ± 2501 ng/g

**Q.** And the t1/2 [6]?
**A.** 2.24 ± 0.37 h

**Q.** What about the AUC0-α (Liver, oral 10 mg/kg conjugate) of the same substance?
**A.** 1464 ± 346 ng·h/g

**Q.** What about the Tmax (Liver, oral 10 mg/kg conjugate) of the same substance?
**A.** 0.63 ± 0.25 h

**Q.** And the F (Liver)?
**A.** 8.38 ± 1.98%

**Q.** What about the AUC0-α [7] of the same substance?
**A.** 1772 ± 141 ng·h/g

**Q.** And the CO [7]?
**A.** 1326 ± 202 ng/g

**Q.** What about the t1/2 [7] of the same substance?
**A.** 3.73 ± 0.47 h

**Q.** What about the AUC0-α (Lung, oral 10 mg/kg conjugate) of the same substance?
**A.** 1315 ± 85.6 ng·h/g

**Q.** What about the Tmax (Lung, oral 10 mg/kg conjugate) of the same substance?
**A.** 1.25 ± 0.68 h

**Q.** And the F (Lung)?
**A.** 74.2 ± 25.3%

**Q.** And the AUC0-α [8]?
**A.** 1586 ± 125 ng·h/mL

**Q.** And the CO [8]?
**A.** 7216 ± 1023 ng/mL

**Q.** And the t1/2 [8]?
**A.** 1.09 ± 0.12 h

**Q.** And the AUC0-α [9]?
**A.** 120 ± 65.0 ng·h/mL

**Q.** And the Cmax [9]?
**A.** 119 ± 25.3 ng/mL

**Q.** And the Tmax [9]?
**A.** 0.75 ± 0.29 h

**Q.** What about the F (Plasma) of the same substance?
**A.** 7.59 ± 2.48%

**Q.** And the AUC0-α [10]?
**A.** 1089 ± 124 ng·h/g

**Q.** What about the CO [10] of the same substance?
**A.** 1026 ± 248 ng/g

**Q.** And the t1/2 [10]?
**A.** 2.27 ± 0.55 h
